pIC50: −log10 of the molar value. Where two headings read alike, the source gives them in different places.
Key:
MATE2-K = MATE2-K (Homo sapiens, UniProt Q86VL8); conditions: for Uptake, MATE2-K (Average ± SD): MATE2-K HEK293 cells; for Uptake, MATE2-K (Average ± SD) / % control / Background corrected uptake rate / Uptake, Control (Average ± SD): [14C]-Metformin 10 μM; for Uptake, Control (Average ± SD): control HEK293 cells
Method: (§1) [^14C]-Metformin (1 mM) was provided as a solid and was prepared in Hank's balanced salt solution (HBSS).
(§2) Cells were plated onto standard 24-well tissue culture plates in cell culture medium 1 to 3 days before the experiment. MATE1 and MATE2-K and control cells were incubated with butyric acid (10 mM) for 24 hours before the experiment to inhibit suppression of the transporter.

MATE1 = molecular target: T1, MATE1 (Homo sapiens, UniProt Q96FL8); conditions: for % control / Background corrected uptake rate: HEK293 cells; for Uptake, MATE1 (Average ± SD): MATE1 HEK293 cells; for Uptake, Control (Average ± SD): control HEK293 cells
T1 sequence (Q96FL8 1-570): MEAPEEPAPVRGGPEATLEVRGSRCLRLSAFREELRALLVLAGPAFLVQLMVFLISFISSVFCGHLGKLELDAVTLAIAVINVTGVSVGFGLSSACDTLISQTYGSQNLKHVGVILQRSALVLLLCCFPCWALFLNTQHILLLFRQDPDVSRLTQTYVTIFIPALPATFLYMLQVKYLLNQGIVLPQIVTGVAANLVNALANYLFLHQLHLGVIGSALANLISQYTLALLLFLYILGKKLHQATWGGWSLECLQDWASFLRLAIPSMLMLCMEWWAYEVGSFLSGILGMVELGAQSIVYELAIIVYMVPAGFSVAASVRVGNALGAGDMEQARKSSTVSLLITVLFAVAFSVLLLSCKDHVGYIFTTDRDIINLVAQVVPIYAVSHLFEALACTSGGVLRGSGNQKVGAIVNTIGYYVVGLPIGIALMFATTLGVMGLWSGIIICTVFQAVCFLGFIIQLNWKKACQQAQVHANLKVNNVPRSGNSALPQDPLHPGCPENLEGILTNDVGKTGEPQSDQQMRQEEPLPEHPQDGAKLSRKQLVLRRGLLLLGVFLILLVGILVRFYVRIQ
Method: as §1, §2

OCT1 [1] = molecular target: T2, OCT1 (Homo sapiens, UniProt O15245)
T2 sequence (O15245 1-554): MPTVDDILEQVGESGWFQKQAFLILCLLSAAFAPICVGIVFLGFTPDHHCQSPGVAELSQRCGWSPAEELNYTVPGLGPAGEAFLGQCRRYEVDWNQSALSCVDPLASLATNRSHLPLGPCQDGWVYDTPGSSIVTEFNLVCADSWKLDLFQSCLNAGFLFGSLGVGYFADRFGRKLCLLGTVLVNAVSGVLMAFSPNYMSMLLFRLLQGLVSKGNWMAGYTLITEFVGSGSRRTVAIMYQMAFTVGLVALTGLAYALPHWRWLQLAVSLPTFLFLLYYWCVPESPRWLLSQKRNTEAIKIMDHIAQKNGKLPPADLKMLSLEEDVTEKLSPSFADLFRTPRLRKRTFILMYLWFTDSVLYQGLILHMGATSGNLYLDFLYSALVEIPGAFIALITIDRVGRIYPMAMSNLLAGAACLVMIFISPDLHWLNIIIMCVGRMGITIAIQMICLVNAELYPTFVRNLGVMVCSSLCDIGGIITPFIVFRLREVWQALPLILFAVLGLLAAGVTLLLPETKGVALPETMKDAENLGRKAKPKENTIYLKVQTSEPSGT

OCT1 [2] = molecular target: T2, OCT1; conditions: for Uptake, OCT1 (Average ± SD): OCT1 HEK293 cells; for Uptake, OCT1 (Average ± SD) / % control / Background corrected uptake rate / Uptake, Control (Average ± SD): [14C]-TEA bromide 5 μM; for Uptake, Control (Average ± SD): control HEK293 cells

Sequence of MATE2-K (Q86VL8 1-566 isoform Q86VL8-3): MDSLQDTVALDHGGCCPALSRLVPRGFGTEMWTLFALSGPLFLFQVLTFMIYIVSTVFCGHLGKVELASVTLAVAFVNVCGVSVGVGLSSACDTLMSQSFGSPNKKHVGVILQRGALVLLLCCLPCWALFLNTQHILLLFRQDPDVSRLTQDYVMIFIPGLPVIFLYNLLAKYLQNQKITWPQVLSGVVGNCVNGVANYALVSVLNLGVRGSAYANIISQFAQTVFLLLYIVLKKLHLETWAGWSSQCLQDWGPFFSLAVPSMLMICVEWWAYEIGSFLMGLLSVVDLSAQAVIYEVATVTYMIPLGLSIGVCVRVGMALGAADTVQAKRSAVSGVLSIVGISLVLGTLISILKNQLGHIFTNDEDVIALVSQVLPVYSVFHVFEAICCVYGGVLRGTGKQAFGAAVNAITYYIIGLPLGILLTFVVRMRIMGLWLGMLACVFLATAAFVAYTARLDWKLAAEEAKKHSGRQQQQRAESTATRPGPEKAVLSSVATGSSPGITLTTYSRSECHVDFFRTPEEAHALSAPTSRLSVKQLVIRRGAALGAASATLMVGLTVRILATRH

`NS(=O)(=O)c1cc(Cl)c(Cl)c(S(N)(=O)=O)c1` [Dichlorphenamide, 4,5-dichloro-1,3-benzenedisulfonamide] was tested, and the pIC50 (MATE2-K) was under 3.00, the “Uptake, MATE2-K (Average ± SD)” value (MATE2-K; inhibitor 1 μM) was 149 ± 29 pmol/mg protein and the “Uptake, MATE2-K (Average ± SD)” value (MATE2-K; inhibitor 3 μM) was 159 ± 19 pmol/mg protein. For the same compound, the “Uptake, MATE2-K (Average ± SD)” value (MATE2-K; inhibitor 10 μM) was 113 ± 8 pmol/mg protein, the “Uptake, MATE2-K (Average ± SD)” value (MATE2-K; inhibitor 30 μM) was 124 ± 36 pmol/mg protein and the “Uptake, MATE2-K (Average ± SD)” value (MATE2-K; inhibitor 100 μM) was 137 ± 15 pmol/mg protein. For the same compound, the “Uptake, MATE2-K (Average ± SD)” value (MATE2-K; inhibitor 300 μM) was 166 ± 16 pmol/mg protein, the “Uptake, MATE2-K (Average ± SD)” value (MATE2-K; inhibitor 1000 μM) was 106 ± 29 pmol/mg protein and the “% control” value (MATE2-K; inhibitor 1 μM) was 101%. For the same compound, the “Background corrected uptake rate” value (MATE2-K; inhibitor 1 μM) was 28.0 pmol/mg/min, the “% control” value (MATE2-K; inhibitor 3 μM) was 108% and the “Background corrected uptake rate” value (MATE2-K; inhibitor 3 μM) was 29.9 pmol/mg/min. The “% control” value (MATE2-K; inhibitor 10 μM) was 76.1%, the “Background corrected uptake rate” value (MATE2-K; inhibitor 10 μM) was 21.0 pmol/mg/min and the “% control” value (MATE2-K; inhibitor 30 μM) was 83.7%. For the same compound, the “Background corrected uptake rate” value (MATE2-K; inhibitor 30 μM) was 23.1 pmol/mg/min, the “% control” value (MATE2-K; inhibitor 100 μM) was 92.4% and the “Background corrected uptake rate” value (MATE2-K; inhibitor 100 μM) was 25.5 pmol/mg/min. The “% control” value (MATE2-K; inhibitor 300 μM) was 114%, the “Background corrected uptake rate” value (MATE2-K; inhibitor 300 μM) was 31.4 pmol/mg/min and the “% control” value (MATE2-K; inhibitor 1000 μM) was 73.2%. For the same compound, the “Background corrected uptake rate” value (MATE2-K; inhibitor 1000 μM) was 20.2 pmol/mg/min, the “Uptake, Control (Average ± SD)” value (MATE2-K; inhibitor 1 μM) was 9.21 ± 0.93 pmol/mg protein and the “Uptake, Control (Average ± SD)” value (MATE2-K; inhibitor 3 μM) was 9.44 ± 2.27 pmol/mg protein. For the same compound, the “Uptake, Control (Average ± SD)” value (MATE2-K; inhibitor 10 μM) was 8.28 ± 1.46 pmol/mg protein, the “Uptake, Control (Average ± SD)” value (MATE2-K; inhibitor 30 μM) was 8.51 ± 1.05 pmol/mg protein and the “Uptake, Control (Average ± SD)” value (MATE2-K; inhibitor 100 μM) was 9.21 ± 1.52 pmol/mg protein. The “Uptake, Control (Average ± SD)” value (MATE2-K; inhibitor 300 μM) was 8.86 ± 0.93 pmol/mg protein, the “Uptake, Control (Average ± SD)” value (MATE2-K; inhibitor 1000 μM) was 5.13 ± 0.40 pmol/mg protein and the pIC50 (MATE2-K; human, pH 8.5) was under 3.00. The pIC50 (MATE1) was under 3.00, the “% control” value (MATE1; inhibitor 1 μm) was 104% and the “Background corrected uptake rate” value (MATE1; inhibitor 1 μm) was 85.8 pmol/mg/min. The “% control” value (MATE1; inhibitor 3 μm) was 95.2%, the “Background corrected uptake rate” value (MATE1; inhibitor 3 μm) was 78.8 pmol/mg/min and the “% control” value (MATE1; inhibitor 10 μm) was 96.4%. For the same compound, the “Background corrected uptake rate” value (MATE1; inhibitor 10 μm) was 79.8 pmol/mg/min, the “% control” value (MATE1; inhibitor 30 μm) was 103% and the “Background corrected uptake rate” value (MATE1; inhibitor 30 μm) was 85.0 pmol/mg/min. The “% control” value (MATE1; inhibitor 100 μm) was 99.8%, the “Background corrected uptake rate” value (MATE1; inhibitor 100 μm) was 82.6 pmol/mg/min and the “% control” value (MATE1; inhibitor 300 μm) was 94.7%. For the same compound, the “Background corrected uptake rate” value (MATE1; inhibitor 300 μm) was 78.4 pmol/mg/min, the “% control” value (MATE1; inhibitor 1000 μm) was 90.3% and the “Background corrected uptake rate” value (MATE1; inhibitor 1000 μm) was 74.7 pmol/mg/min. For the same compound, the “Uptake, MATE1 (Average ± SD)” value (MATE1; inhibitor 1 μm) was 436 ± 23 pmol/mg protein, the “Uptake, MATE1 (Average ± SD)” value (MATE1; inhibitor 3 μm) was 401 ± 7 pmol/mg protein and the “Uptake, MATE1 (Average ± SD)” value (MATE1; inhibitor 10 μm) was 406 ± 12 pmol/mg protein. The “Uptake, MATE1 (Average ± SD)” value (MATE1; inhibitor 30 μm) was 432 ± 10 pmol/mg protein, the “Uptake, MATE1 (Average ± SD)” value (MATE1; inhibitor 100 μm) was 421 ± 17 pmol/mg protein and the “Uptake, MATE1 (Average ± SD)” value (MATE1; inhibitor 300 μm) was 398 ± 17 pmol/mg protein. The “Uptake, MATE1 (Average ± SD)” value (MATE1; inhibitor 1000 μm) was 379 ± 13 pmol/mg protein, the “Uptake, Control (Average ± SD)” value (MATE1; inhibitor 1 μm) was 6.66 ± 1.31 pmol/mg protein and the “Uptake, Control (Average ± SD)” value (MATE1; inhibitor 3 μm) was 6.75 ± 1.65 pmol/mg protein. For the same compound, the “Uptake, Control (Average ± SD)” value (MATE1; inhibitor 10 μm) was 7.43 ± 1.34 pmol/mg protein, the “Uptake, Control (Average ± SD)” value (MATE1; inhibitor 30 μm) was 6.79 ± 0.89 pmol/mg protein and the “Uptake, Control (Average ± SD)” value (MATE1; inhibitor 100 μm) was 7.52 ± 0.96 pmol/mg protein. The “Uptake, Control (Average ± SD)” value (MATE1; inhibitor 300 μm) was 5.56 ± 0.16 pmol/mg protein, the “Uptake, Control (Average ± SD)” value (MATE1; inhibitor 1000 μm) was 5.52 ± 0.21 pmol/mg protein and the pIC50 (MATE1; human, pH 8.5) was under 3.00. The pIC50 (OCT1 [1]) was under 3.00, the “Uptake, OCT1 (Average ± SD)” value (OCT1 [2]; inhibitor 1 μm) was 121 ± 11 pmol/mg protein and the “Uptake, OCT1 (Average ± SD)” value (OCT1 [2]; inhibitor 3 μm) was 125 ± 5 pmol/mg protein. The “Uptake, OCT1 (Average ± SD)” value (OCT1 [2]; inhibitor 10 μm) was 111 ± 4 pmol/mg protein, the “Uptake, OCT1 (Average ± SD)” value (OCT1 [2]; inhibitor 30 μm) was 122 ± 14 pmol/mg protein and the “Uptake, OCT1 (Average ± SD)” value (OCT1 [2]; inhibitor 100 μm) was 128 ± 6 pmol/mg protein. The “Uptake, OCT1 (Average ± SD)” value (OCT1 [2]; inhibitor 300 μm) was 130 ± 10 pmol/mg protein, the “Uptake, OCT1 (Average ± SD)” value (OCT1 [2]; inhibitor 1000 μm) was 77.9 ± 3.0 pmol/mg protein and the “% control” value (OCT1 [2]; inhibitor 1 μm) was 98.6%. The “Background corrected uptake rate” value (OCT1 [2]; inhibitor 1 μm) was 7.76 pmol/mg/min, the “% control” value (OCT1 [2]; inhibitor 3 μm) was 102% and the “Background corrected uptake rate” value (OCT1 [2]; inhibitor 3 μm) was 8.07 pmol/mg/min. For the same compound, the “% control” value (OCT1 [2]; inhibitor 10 μm) was 90.6%, the “Background corrected uptake rate” value (OCT1 [2]; inhibitor 10 μm) was 7.13 pmol/mg/min and the “% control” value (OCT1 [2]; inhibitor 30 μm) was 99.7%. For the same compound, the “Background corrected uptake rate” value (OCT1 [2]; inhibitor 30 μm) was 7.85 pmol/mg/min, the “% control” value (OCT1 [2]; inhibitor 100 μm) was 105% and the “Background corrected uptake rate” value (OCT1 [2]; inhibitor 100 μm) was 8.26 pmol/mg/min. The “% control” value (OCT1 [2]; inhibitor 300 μm) was 107%, the “Background corrected uptake rate” value (OCT1 [2]; inhibitor 300 μm) was 8.40 pmol/mg/min and the “% control” value (OCT1 [2]; inhibitor 1000 μm) was 63.5%. For the same compound, the “Background corrected uptake rate” value (OCT1 [2]; inhibitor 1000 μm) was 5.00 pmol/mg/min, the “Uptake, Control (Average ± SD)” value (OCT1 [2]; inhibitor 1 μm) was 4.28 ± 1.48 pmol/mg protein and the “Uptake, Control (Average ± SD)” value (OCT1 [2]; inhibitor 3 μm) was 4.44 ± 1.97 pmol/mg protein. For the same compound, the “Uptake, Control (Average ± SD)” value (OCT1 [2]; inhibitor 10 μm) was 4.28 ± 0.92 pmol/mg protein, the “Uptake, Control (Average ± SD)” value (OCT1 [2]; inhibitor 30 μm) was 3.88 ± 0.48 pmol/mg protein and the “Uptake, Control (Average ± SD)” value (OCT1 [2]; inhibitor 100 μm) was 4.12 ± 0.73 pmol/mg protein. For the same compound, the “Uptake, Control (Average ± SD)” value (OCT1 [2]; inhibitor 300 μm) was 3.88 ± 1.11 pmol/mg protein, the “Uptake, Control (Average ± SD)” value (OCT1 [2]; inhibitor 1000 μm) was 2.99 ± 1.46 pmol/mg protein and the pIC50 (OCT1 [2]; human, pH 7.4) was under 3.00.
